# Source: patent US20160039802A1, “3-PYRIMIDIN-4-YL-OXAZOLIDIN-2-ONES AS INHIBITORS OF MUTANT IDH” (NOVARTIS AG, priority 2013, published 2016)
# Target: T1, IDH1 (R132H) mutant (Homo sapiens, UniProt O75874, R132H)
# T1 construct: His6 with PreScission site (N, cleaved yes); made in house; host or cells: E. coli Rosetta 2(DE3)
# Assay: Fluorescence biochemical assay (NADPH oxidation)
# Settings: mIDH R132H 10 nM, 10 μM NADPH, 100 μM α-KG; range where run multiple times
# Protocol: The IDH1 (R132H) mutant catalyzes the reduced form of NADP+ (NADPH) and α-ketoglutarate (α-KG) to form nicotinamide adenine dinucleotide phosphate (NADP+) and R(−)-2-hydroxyglutarate (2HG). […] Reactions were monitored using the Perkin-Elmer Envision, Model 2101. […] The final reaction mixture contained 2.5% DMSO and test compounds with concentrations ranging 0.0000008-25 μM. The IDH1 (R132H) enzyme was used at a final concentration of 10 nM. Curve fitting for dose response […] determinations was done in the Helios module of the software package DAVID. The 4-parameter logistic model was used: y=min+((max−min)/1+(x/IC50)^shape)
# T1 sequence (O75874 whole entry R132H): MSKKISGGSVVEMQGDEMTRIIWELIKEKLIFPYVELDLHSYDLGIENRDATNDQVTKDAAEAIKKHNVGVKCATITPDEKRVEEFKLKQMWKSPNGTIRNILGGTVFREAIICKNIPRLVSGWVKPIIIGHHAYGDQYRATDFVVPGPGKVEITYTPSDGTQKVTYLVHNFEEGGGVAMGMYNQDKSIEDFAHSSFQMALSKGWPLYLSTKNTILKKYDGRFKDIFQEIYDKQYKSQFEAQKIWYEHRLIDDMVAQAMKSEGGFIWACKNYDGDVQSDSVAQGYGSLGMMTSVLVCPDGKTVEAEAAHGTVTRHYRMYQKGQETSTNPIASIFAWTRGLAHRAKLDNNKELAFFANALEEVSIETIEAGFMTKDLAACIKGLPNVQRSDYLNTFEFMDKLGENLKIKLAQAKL
row,SMILES,IC50 [nM]
1,"C[C@H](Nc1nc(F)cc(N2C(=O)OC[C@@H]2C2CC2)n1)c1ccccc1 [Example 1, (S)-4-cyclopropyl-3-(6-fluoro-2-((S)-1-phenylethylamino)pyrimidin-4-yl)oxazolidin-2-one]",365
2,"C[C@H](Nc1nccc(N2C(=O)OC[C@@H]2C2CC2)n1)c1nc(-c2ccc(Cl)cc2)no1 [Example 28, (S)-3-(2-((S)-1-(3-(4-chlorophenyl)-1,2,4-oxadiazol-5-yl)ethylamino)pyrimidin-4-yl)-4-cyclopropyloxazolidin-2-one]",62.7
3,"Cc1ccc(-c2ncc([C@H](C)Nc3nc(C)cc(N4C(=O)OC[C@@H]4C4CC4)n3)s2)cn1 [Example 13, (S)-4-cyclopropyl-3-(6-methyl-2-(((S)-1-(2-(6-methylpyridin-3-yl)thiazol-5-yl)ethyl)amino)pyrimidin-4-yl)oxazolidin-2-one]",191
4,"C[C@H](Nc1nccc(N2C(=O)OC[C@@H]2C2CC2)n1)c1cnc(-c2ccc(C(F)F)cc2)s1 [Example 16, (S)-4-cyclopropyl-3-(2-(((S)-1-(2-(4-(difluoromethyl)phenyl)thiazol-5-yl)ethyl)amino)pyrimidin-4-yl)oxazolidin-2-one]",29.2
5,"C[C@H](Nc1nc(Cl)cc(N2C(=O)OC[C@@H]2C2CC2)n1)c1cn(-c2ccc(Cl)cc2)cn1 [Example 26, (S)-3-(6-chloro-2-(((S)-1-(1-(4-chlorophenyl)-1H-imidazol-4-yl)ethyl)amino)pyrimidin-4-yl)-4-cyclopropyloxazolidin-2-one]",349
6,"C[C@H](Nc1nc(Cl)cc(N2C(=O)OC[C@@H]2C2CC2)n1)c1cnc(N2CCOCC2)s1 [Example 6, (S)-3-(6-chloro-2-(((S)-1-(2-morpholinothiazol-5-yl)ethyl)amino)pyrimidin-4-yl)-4-cyclopropyloxazolidin-2-one]",934
7,"C[C@H](Nc1ncc(F)c(N2C(=O)OC[C@@H]2C2CC2)n1)c1nc(-c2ccc(Cl)cc2)no1 [Example 29, (S)-3-(2-((S)-1-(3-(4-chlorophenyl)-1,2,4-oxadiazol-5-yl)ethylamino)-5-fluoropyrimidin-4-yl)-4-cyclopropyloxazolidin-2-one]",124
8,"C[C@H](Nc1nc(Cl)cc(N2C(=O)OC[C@@H]2C2CC2)n1)c1cnn(-c2ccc(Cl)cc2)c1 [Example 5, (S)-3-(6-chloro-2-(((S)-1-(1-(4-chlorophenyl)-1H-pyrazol-4-yl)ethyl)amino)pyrimidin-4-yl)-4-cyclopropyloxazolidin-2-one]",33.2
9,"C[C@H](Nc1nccc(N2C(=O)OC[C@@H]2C2CC2)n1)c1cnc(-c2ccc(C(F)(F)F)nc2)s1 [Example 14, (S)-4-cyclopropyl-3-(2-(((S)-1-(2-(6-(trifluoromethyl)pyridin-3-yl)thiazol-5-yl)ethyl)amino)pyrimidin-4-yl)oxazolidin-2-one]",49.1
10,"C[C@H](Nc1ncc(F)c(N2C(=O)OC[C@@H]2C2CC2)n1)c1cnc(C(C)(F)F)c(Cl)c1 [Example 22, (S)-3-(2-((S)-1-(5-chloro-6-(1,1-difluoroethyl)pyridin-3-yl)ethylamino)-5-fluoropyrimidin-4-yl)-4-cyclopropyloxazolidin-2-one]",1140
11,"C[C@H](Nc1nccc(N2C(=O)OC[C@@H]2C2CC2)n1)c1ccccc1 [Example 23, (S)-4-cyclopropyl-3-(2-((S)-1-phenylethylamino)pyrimidin-4-yl)oxazolidin-2-one]",1370
12,"C[C@H](Nc1nccc(N2C(=O)OC[C@@H]2C2CC2)n1)c1ccn(-c2ccc(C(F)(F)F)nc2)n1 [Example 17, (S)-4-cyclopropyl-3-(2-(((S)-1-(1-(6-(trifluoromethyl)pyridin-3-yl)-1H-pyrazol-3-yl)ethyl)amino)pyrimidin-4-yl)oxazolidin-2-one]",169
13,"C[C@H](Nc1nccc(N2C(=O)OC[C@]2(C)C2CC2)n1)c1ccc(CN2CCC(N3CCOCC3)CC2)cc1 [Example 68, (S)-4-cyclopropyl-4-methyl-3-(2-(((S)-1-(4-((4-morpholinopiperidin-1-yl)methyl)phenyl)ethyl)amino)pyrimidin-4-yl)oxazolidin-2-one]",96
